In PubChem BioAssay AID254 (DTP/NCI, 2004):
“And” between values parts separate entries of the source, which are not always exact repeats. Identical values can stand only once. Inconclusive results and toxic doses are left out.

Tested on: L1210 leukemia iv in BDF1 mice, survival T/C
Assay: NCI In Vivo Anticancer Drug Screen. Data for tumor model L1210 Leukemia (intravenous) in B6D2F1 (BDF1) mice
Conditions: higher = longer survival
Method: The antitumor activity of compounds was measured in mice bearing transplantable tumors. Survival or tumor size were measured and the results are expressed as the measurement made in the treated group (T) divided by the measurement made in the vehicle treated control group (C). The tumor model used in this assay is L1210 Leukemia (intravenous) in B6D2F1 (BDF1) mice

Compound: O=NN(CCCl)C(=O)N[C@H]1CCCC[C@H]1Cl
- T/C (endpoint: mean survival time, dose: 25.0 mg/kg/injection, schedule: Q01DX001 (ip), vehicle: carboxymethylcellulose (CMC)): 190 % of control and 262 % of control
- T/C (endpoint: mean survival time, dose: 51.0 mg/kg/injection, schedule: Q01DX001 (ip), vehicle: carboxymethylcellulose (CMC)): 427 % of control and 435 % of control
- T/C (endpoint: mean survival time, dose: 101.0 mg/kg/injection, schedule: Q01DX001 (ip), vehicle: carboxymethylcellulose (CMC)): 588 % of control and 767 % of control
- T/C (endpoint: mean survival time, dose: 203.0 mg/kg/injection, schedule: Q01DX001 (ip), vehicle: carboxymethylcellulose (CMC)): 111 % of control and 202 % of control

Compound: Nc1n[nH]c(N)n1
- T/C (endpoint: mean survival time, dose: 100.0 mg/kg/injection, schedule: Q03HX024 (ip), vehicle: saline): 104 % of control and 91 % of control and 100 % of control
- T/C (endpoint: mean survival time, dose: 150.0 mg/kg/injection, schedule: Q03HX024 (ip), vehicle: saline): 103 % of control (2×) and 104 % of control
- T/C (endpoint: mean survival time, dose: 225.0 mg/kg/injection, schedule: Q03HX024 (ip), vehicle: saline): 112 % of control and 116 % of control
- T/C (endpoint: mean survival time, dose: 335.0 mg/kg/injection, schedule: Q03HX024 (ip), vehicle: saline): 153 % of control and 159 % of control (2×)
- T/C (endpoint: mean survival time, dose: 500.0 mg/kg/injection, schedule: Q03HX024 (ip), vehicle: saline): 201 % of control and 215 % of control and 257 % of control
- T/C (endpoint: mean survival time, dose: 4000.0 mg/kg/injection, schedule: Q01DX001 (ip), vehicle: saline): 120 % of control

Compound: CC(CN1CC(=O)NC(=O)C1)N1CC(=O)NC(=O)C1 (stereo not given)
- T/C (endpoint: mean survival time, dose: 108.0 mg/kg/injection, schedule: Q04DX003 (ip), vehicle: Klucel (hydroxypropylcellulose) (HPC)): 165 % of control
- T/C (endpoint: mean survival time, dose: 180.0 mg/kg/injection, schedule: Q04DX003 (ip), vehicle: Klucel (hydroxypropylcellulose) (HPC)): 176 % of control
- T/C (endpoint: mean survival time, dose: 300.0 mg/kg/injection, schedule: Q04DX003 (ip), vehicle: Klucel (hydroxypropylcellulose) (HPC)): 191 % of control

Compound: COc1cccc2c1C(=O)c1c(O)c3c(c(O)c1C2=O)CC(O)(C(=O)CO)CC3OC1CC(N)C(O)C(C)O1 (stereo not given)
- T/C (endpoint: mean survival time, dose: 0.75 mg/kg/injection, schedule: Q01DX005 (iv), vehicle: saline): 104 % of control
- T/C (endpoint: mean survival time, dose: 1.5 mg/kg/injection, schedule: Q01DX005 (iv), vehicle: saline): 103 % of control
- T/C (endpoint: mean survival time, dose: 3.0 mg/kg/injection, schedule: Q01DX005 (iv), vehicle: saline): 117 % of control
- T/C (endpoint: mean survival time, dose: 4.0 mg/kg/injection, schedule: Q01DX005 (iv), vehicle: saline): 105 % of control
- T/C (endpoint: mean survival time, dose: 5.0 mg/kg/injection, schedule: Q01DX005 (iv), vehicle: saline): 89 % of control
- T/C (endpoint: mean survival time, dose: 6.0 mg/kg/injection, schedule: Q01DX005 (iv), vehicle: saline): 97 % of control
- T/C (endpoint: mean survival time, dose: 7.0 mg/kg/injection, schedule: Q01DX005 (iv), vehicle: saline): 96 % of control
- T/C (endpoint: mean survival time, dose: 8.0 mg/kg/injection, schedule: Q01DX005 (iv), vehicle: saline): 90 % of control

Compound: O=NN(CCCl)C(=O)NC1CCS(=O)(=O)C1 (stereo not given) (tested in a mixture with another compound)
- T/C (endpoint: mean survival time, dose: 7.0 mg/kg/injection, schedule: Q01DX001 (ip), vehicle: other): 267 % of control
- T/C (endpoint: mean survival time, dose: 11.0 mg/kg/injection, schedule: Q01DX001 (ip), vehicle: other): 239 % of control
- T/C (endpoint: mean survival time, dose: 14.0 mg/kg/injection, schedule: Q01DX001 (oral), vehicle: other): 276 % of control
- T/C (endpoint: mean survival time, dose: 16.0 mg/kg/injection, schedule: Q01DX001 (ip), vehicle: other): 281 % of control
- T/C (endpoint: mean survival time, dose: 22.0 mg/kg/injection, schedule: Q01DX001 (oral), vehicle: other): 474 % of control
- T/C (endpoint: mean survival time, dose: 24.0 mg/kg/injection, schedule: Q01DX001 (ip), vehicle: other): 281 % of control
- T/C (endpoint: mean survival time, dose: 32.0 mg/kg/injection, schedule: Q01DX001 (oral), vehicle: other): 495 % of control
- T/C (endpoint: mean survival time, dose: 36.0 mg/kg/injection, schedule: Q01DX001 (ip), vehicle: other): 232 % of control
- T/C (endpoint: mean survival time, dose: 48.0 mg/kg/injection, schedule: Q01DX001 (oral), vehicle: other): 253 % of control
- T/C (endpoint: mean survival time, dose: 72.0 mg/kg/injection, schedule: Q01DX001 (oral), vehicle: other): 213 % of control

Compound: CN(C)/N=N/c1nc[nH]c1C(N)=O
- T/C (endpoint: mean survival time, dose: 42.0 mg/kg/injection, schedule: Q01DX001 (ip), vehicle: carboxymethylcellulose (CMC)): 85 % of control and 86 % of control
- T/C (endpoint: mean survival time, dose: 83.0 mg/kg/injection, schedule: Q01DX001 (ip), vehicle: carboxymethylcellulose (CMC)): 97 % of control and 98 % of control
- T/C (endpoint: mean survival time, dose: 170.0 mg/kg/injection, schedule: Q01DX001 (ip), vehicle: carboxymethylcellulose (CMC)): 114 % of control and 115 % of control
- T/C (endpoint: mean survival time, dose: 180.0 mg/kg/injection, schedule: Q01DX001 (ip), vehicle: carboxymethylcellulose (CMC)): 113 % of control
- T/C (endpoint: mean survival time, dose: 600.0 mg/kg/injection, schedule: Q01DX001 (ip), vehicle: carboxymethylcellulose (CMC)): 161 % of control
- T/C (endpoint: mean survival time, dose: 900.0 mg/kg/injection, schedule: Q01DX001 (ip), vehicle: carboxymethylcellulose (CMC)): 193 % of control
- T/C (endpoint: mean survival time, dose: 1012.0 mg/kg/injection, schedule: Q01DX001 (ip), vehicle: carboxymethylcellulose (CMC)): 183 % of control and 184 % of control
- T/C (endpoint: mean survival time, dose: 1350.0 mg/kg/injection, schedule: Q01DX001 (ip), vehicle: carboxymethylcellulose (CMC)): 113 % of control

Compound: CCCCCCCCCCCCCCCC(=O)OCC1OC(n2ccc(N)nc2=O)C(O)C1O (stereo not given)
- T/C (endpoint: mean survival time, dose: 5.0 mg/kg/injection, schedule: Q01DX005 (ip), vehicle: other): 118 % of control and 122 % of control
- T/C (endpoint: mean survival time, dose: 10.0 mg/kg/injection, schedule: Q01DX005 (ip), vehicle: other): 172 % of control
- T/C (endpoint: mean survival time, dose: 15.0 mg/kg/injection, schedule: Q01DX005 (ip), vehicle: other): 177 % of control
- T/C (endpoint: mean survival time, dose: 18.0 mg/kg/injection, schedule: Q01DX004 (ip), vehicle: other): 165 % of control and 183 % of control
- T/C (endpoint: mean survival time, dose: 20.0 mg/kg/injection, schedule: Q01DX005 (ip), vehicle: other): 175 % of control and 176 % of control and 200 % of control
- T/C (endpoint: mean survival time, dose: 25.0 mg/kg/injection, schedule: Q01DX005 (ip), vehicle: other): 171 % of control and 211 % of control and 220 % of control
- T/C (endpoint: mean survival time, dose: 27.0 mg/kg/injection, schedule: Q01DX004 (ip), vehicle: other): 182 % of control and 234 % of control
- T/C (endpoint: mean survival time, dose: 27.0 mg/kg/injection, schedule: Q02DX004 (ip), vehicle: other): 178 % of control and 193 % of control
- T/C (endpoint: mean survival time, dose: 30.0 mg/kg/injection, schedule: Q01DX005 (ip), vehicle: other): 217 % of control and 249 % of control and 252 % of control
- T/C (endpoint: mean survival time, dose: 35.0 mg/kg/injection, schedule: Q01DX005 (ip), vehicle: other): 201 % of control and 267 % of control and 298 % of control
- T/C (endpoint: mean survival time, dose: 40.0 mg/kg/injection, schedule: Q01DX004 (ip), vehicle: other): 263 % of control and 291 % of control
- T/C (endpoint: mean survival time, dose: 40.0 mg/kg/injection, schedule: Q02DX004 (ip), vehicle: other): 213 % of control and 226 % of control
- T/C (endpoint: mean survival time, dose: 40.0 mg/kg/injection, schedule: Q03DX004 (ip), vehicle: other): 216 % of control and 246 % of control
- T/C (endpoint: mean survival time, dose: 60.0 mg/kg/injection, schedule: Q01DX004 (ip), vehicle: other): 249 % of control and 323 % of control
- T/C (endpoint: mean survival time, dose: 60.0 mg/kg/injection, schedule: Q02DX004 (ip), vehicle: other): 248 % of control and 280 % of control
- T/C (endpoint: mean survival time, dose: 60.0 mg/kg/injection, schedule: Q03DX004 (ip), vehicle: other): 242 % of control and 305 % of control
- T/C (endpoint: mean survival time, dose: 60.0 mg/kg/injection, schedule: Q04DX004 (ip), vehicle: other): 202 % of control and 260 % of control
- T/C (endpoint: mean survival time, dose: 90.0 mg/kg/injection, schedule: Q02DX004 (ip), vehicle: other): 277 % of control and 309 % of control
- T/C (endpoint: mean survival time, dose: 90.0 mg/kg/injection, schedule: Q03DX004 (ip), vehicle: other): 291 % of control and 328 % of control
- T/C (endpoint: mean survival time, dose: 90.0 mg/kg/injection, schedule: Q04DX004 (ip), vehicle: other): 340 % of control and 303 % of control
- T/C (endpoint: mean survival time, dose: 100.0 mg/kg/injection, schedule: Q01DX001 (ip), vehicle: saline with Tween-80): 200 % of control
- T/C (endpoint: mean survival time, dose: 135.0 mg/kg/injection, schedule: Q03DX004 (ip), vehicle: other): 175 % of control and 249 % of control
- T/C (endpoint: mean survival time, dose: 135.0 mg/kg/injection, schedule: Q04DX004 (ip), vehicle: other): 267 % of control and 327 % of control
- T/C (endpoint: mean survival time, dose: 150.0 mg/kg/injection, schedule: Q01DX001 (ip), vehicle: saline with Tween-80): 229 % of control
- T/C (endpoint: mean survival time, dose: 200.0 mg/kg/injection, schedule: Q04DX004 (ip), vehicle: other): 203 % of control and 244 % of control
- T/C (endpoint: median survival time, dose: 75.0 mg/kg/injection, schedule: Q04DX002 (ip), vehicle: saline with Tween-80): 318 % of control and 327 % of control
- T/C (endpoint: median survival time, dose: 100.0 mg/kg/injection, schedule: Q04DX002 (ip), vehicle: saline with Tween-80): 314 % of control and 315 % of control

Compound: O=NN(CCCl)C(=O)NC1CCC(=O)NC1=O (stereo not given)
- T/C (endpoint: mean survival time, dose: 4.0 mg/kg/injection, schedule: Q01DX001 (ip), vehicle: other): 162 % of control and 175 % of control
- T/C (endpoint: mean survival time, dose: 8.0 mg/kg/injection, schedule: Q01DX001 (ip), vehicle: other): 244 % of control and 260 % of control
- T/C (endpoint: mean survival time, dose: 17.0 mg/kg/injection, schedule: Q01DX001 (ip), vehicle: other): 380 % of control and 428 % of control
- T/C (endpoint: mean survival time, dose: 35.0 mg/kg/injection, schedule: Q01DX001 (ip), vehicle: other): 395 % of control and 570 % of control
